Where a SMILES comes first, the peptide text is derived from it.
In order of falling logP:
1. CCCC1C(=O)N(CCN(C)C)c2cccc(C(F)(F)F)c2CC1c1ccc(OC)cc1 (centres undefined)  6.9
2. Clc1cc(Cl)c(-c2cc(Cl)cc(Cl)c2Cl)c(Cl)c1  6.87
3. COc1ccc(C2Cc3c(C(=O)OCc4ccccc4)cccc3N(CCN(C)C)C(=O)C2OC(C)=O)cc1 (centres undefined)  5.3
4. COc1ccc(C2CC(=O)N(CCN(C)C)c3cccc(C(F)(F)F)c3C2)cc1 (centres undefined)  5.1
5. O=S(=O)(NC(=S)NC1CCCCC1)c1cnccc1NC1CCCCCCC1  5.04
6. COC(=O)c1cc2ccc3cccc4ccc(c1)c2c34  4.85
7. CCCC(=NOCC)C1=C(O)CC(c2ccccc2)(c2ccccc2)OC1=O  4.75
8. CCCCCCCCOC(=O)c1cccnc1  4.71
9. Nc1ccc(CNC(=O)C2CCCN2C(=O)C(N)C(C2CCCCC2)C2CCCCC2)cn1 (centres undefined)  4.61
10. CC1=CCCC(C)C12CCC(C(C)(C)O)C2 (centres undefined)  4.59
11. COc1c2ccccc2cc2ccccc12  4.36
12. CC1CC2C3CCC4=CC(=O)C=CC4(C)C3(F)C(O)CC2(C)C1(O)C(=O)COC(=O)CC(C)(C)C (centres undefined)  4.3
13. O=C(NCC(F)(F)F)NS(=O)(=O)c1cnccc1NC1CCCCCCC1  4.22
14. CCOC(=O)C1=C(C)NC(C)=C(C(=O)OC)C1c1ccccc1 (centres undefined)  4.14
15. Clc1ccccc1N1CCN(CCCOn2nnc3ccccc32)CC1  4.1
16. CCC(=O)[C@@]1(C)CC[C@H]2[C@@H]3CCC4=CC(=O)CCC4=C3CC[C@@]21C  4.04
17. COc1ccc(C2Cc3cc(SC)ccc3N(CCN(C)C)C(=O)C2OC(C)=O)cc1 (centres undefined)  4
18. CCCCC(C)N=C=S (centres undefined)  3.94
19. CCN(CC)c1ccc(-n2c(C(F)(F)F)nn(C)c2=S)cc1  3.79
20. CCOC(=O)C1=C(C)NC(C)=C(C(=O)OC)C1c1ccccc1OCOC (centres undefined)  3.78
21. CC(CC(=O)c1ccc(-c2ccc(F)cc2F)cc1)C(=O)O (centres undefined)  3.78
22. c1ccc(CCN2CCN(CCn3nc4ccccc4n3)CC2)cc1  3.72
23. CCCC(=NOCC)C1=C(O)CC2(CCCCC2)OC1=O  3.62
24. CC(C)CCCCNc1[nH]cnc2ncnc1-2  3.61
25. O=c1cc(-c2ccccc2Cl)oc2ccccc12  3.61
26. CC(=O)c1c2ccccc2cc2ccccc12  3.6
27. CNC=C1c2cccc(O)c2C(=O)c2c(O)cccc21  3.55
28. C=C(C)C(=O)OCC(COC(=O)C(=C)C)COC(=O)C(=C)C  3.53
29. CC1(C)C2CCC(CO)C1C2 (centres undefined)  3.41
30. Cc1ccc(CO)c(C=NNC(=O)c2cccc(F)c2)c1O  3.41
31. CC(=O)c1cc(F)c(Cl)cc1Cl  3.4
32. CCOC(=O)C(C)(Cc1ccccc1)S(=O)(=O)c1ccc([N+](=O)[O-])cc1 (centres undefined)  3.4
33. CN(C)C(c1ccccc1)c1ccccc1  3.37
34. CCCc1nc(NCC)nc(N2CCCCC2)n1  3.34
35. Cc1c(C)c2ccc3occ(C)c3c2oc1=O  3.34
36. COc1c2oc(=O)c(C)cc2cc2c(C)c(C)oc12  3.28
37. Cc1c(C)c2cc(C)c3occc3c2oc1=O  3.23
38. CCCCCCNc1[nH]cnc2ncnc1-2  3.16
39. O=C(O)CCCCON=C(c1cccc(C(F)(F)F)c1)c1ccncn1  3.14
40. CC(=O)OCCOC(=O)C(C)c1cccc(C(=O)c2ccccc2)c1 (centres undefined)  3.1
41. O=[N+]([O-])c1ccc(CCBr)cc1  2.9
42. O=C1c2ccccc2-c2nnc(-c3ccc(O)cc3)cc21  2.88
43. CCCSc1cccc2nc(N)nc(N)c12  2.85
44. C=CC(=O)OC1CCCCC1  2.8
45. CCC(C)SSc1ncc[nH]1 (centres undefined)  2.76
46. Cc1ccc(Cc2c[nH]cn2)cc1C  2.72
47. CC#CC(O)c1c(C)nc2c3c(c(C(=O)N(C)C)cn12)CCC(c1ccccc1)O3 (centres undefined)  2.7
48. S=c1[nH]nc(Cn2ccc3ccccc32)n1-c1ccccc1  2.68
49. COc1ccc(CCNCC(O)COc2ccc(-c3ncco3)cc2)cc1OC (centres undefined)  2.6
50. O=c1ccc2ccc3occc3c2s1  2.58
51. Cc1coc2cc3oc(=O)ccc3cc12  2.47
52. CC(=O)NC(CCCCN(Cc1ccccc1)C(=O)N(CCCl)N=O)C(=O)NCc1ccccc1 (centres undefined)  2.46
53. Cc1cc2ccc(=O)oc2c2ccoc12  2.39
54. C=CCNc1nc(CCC)nc(N2CCOCC2)n1  2.37
55. NC1=NCC(COc2cccc(C(F)(F)F)c2)O1 (centres undefined)  2.35
56. COC(=O)c1ccc(Cl)cc1[N+](=O)[O-]  2.35
57. Cc1ccc(C(=O)O)cc1[N+](=O)[O-]  2.35
58. O=C1C=C(N2CCCC2)C(=O)N1c1ccc(F)cc1  2.3
59. O=c1ccc2cc3ccsc3cc2o1  2.27
60. CCCCCCNc1ncnc2c1ncn2C1OC(CO)C(O)C1O (centres undefined)  2.24
61. CCCCOCCCNc1[nH]cnc2ncnc1-2  2.22
62. CC(C)NCC(O)COc1ccc(Cc2nc(Br)c[nH]2)cc1 (centres undefined)  2.2
63. COC(=O)C(C)NP(=O)(OCC1C=CC(n2cc(C)c(=O)[nH]c2=O)O1)Oc1ccc(Cl)c(Cl)c1 (centres undefined)  2.15
64. CNC(=S)NN=C(c1cccc([N+](=O)[O-])c1)c1ccccn1  2.14
65. COc1ccc2c(c1)C(=O)N(CCO[N+](=O)[O-])CO2  2.07
66. CC(C)NC(=NC#N)NS(=O)(=O)c1cnccc1NC1CCCCCC1  2.07
67. Cc1cccc(C)c1OCC1CN=C(N)O1 (centres undefined)  2
68. c1ccc2c(c1)OCC(CCc1ncc[nH]1)O2 (centres undefined)  1.99
69. Nc1nc(N)c2c(Br)cccc2n1  1.91
70. CC(=O)C(Cc1ccccc1)=C(C)O  1.89
71. Cc1cccc(OCC2CN=C(N)O2)c1 (centres undefined)  1.75
72. COC(=O)C(C)NP(=O)(OCC1C=CC(n2cc(C)c(=O)[nH]c2=O)O1)Oc1cccc(Br)c1 (centres undefined)  1.64
73. COC(=O)C(C)NP(=O)(OCC1C=CC(n2cc(C)c(=O)[nH]c2=O)O1)Oc1cccc(C(F)(F)F)c1 (centres undefined)  1.57
74. CNc1nccn2c(Cc3ccccc3F)nnc12  1.56
75. O=c1cc(CSc2nc3ccccc3[nH]2)occ1O  1.51
76. Cc1c[nH]c(Cc2ccc(OCC(O)CNC(C)(C)C)cc2)n1 (centres undefined)  1.4
77. CC(C)NCC(O)COc1ccc(-c2ncc[nH]2)cc1 (centres undefined)  1.4
78. COC(=O)C(C)NP(=O)(OCC1C=CC(n2cc(C)c(=O)[nH]c2=O)O1)Oc1ccccc1Cl (centres undefined)  1.37
79. CN1CCN(CCCOn2nnc3ccccc32)CC1  1.3
80. CC1(C(=O)O)CSC(c2ccc(O)cc2O)=N1 (centres undefined)  1.3
81. COc1cccc2c1C(=O)c1c(O)c3c(c(O)c1C2=O)CC(O)(C(=O)CO)CC3OC1CC(N(C)C)C(O)C(C)O1 (centres undefined)  1.28
82. O=C1c2ccccc2-c2nnccc21  1.22
83. CC(=NNC(=O)c1ccncc1)c1cnccn1  1.2
84. C=CCNc1ncnc2nc[nH]c12  1.09
85. COC(=O)C(C)NP(=O)(OCC1C=CC(n2cc(C)c(=O)[nH]c2=O)O1)Oc1ccc(OC)cc1 (centres undefined)  1.09
86. O=C(c1ccccc1)c1ccnnc1  1.09
87. CCNc1[nH]cnc2ncnc1-2  0.92
88. c1nc2nc[nH]c(N3CCC3)c-2n1  0.87
89. N#CN=C1NCCN1Cc1cnccc1Cl  0.77
90. COCCCNc1[nH]cnc2ncnc1-2  0.75
91. CN1CC(O)N(C(=O)NCCCl)C1=O (centres undefined)  0.71
92. CC1CC2OC(=O)C(C)C2C(O)C2(C)C(=O)C=CC12 (centres undefined)  0.53
93. CON=C(C(=O)NC1C(=O)N2C(C(C)OC(C)=O)=CCSC12)c1csc(N)n1 (centres undefined)  0.46
94. CCCC(=O)NCCCCCN(O)C(=O)CCC(=O)NCCCCCN(O)C(=O)CCC(=O)NCCCCCN(O)C(C)=O  0.42
95. Cc1nc2ccccc2c(=O)n1CC(=O)O  0.38
96. Cc1nc2ccccc2c(=O)n1CC(=O)N1CCOCC1  0.36
97. CC(C)CC(NC(=O)C(CC(C)C)NC(=O)CNC(=O)C(N)Cc1c[nH]c2ccccc12)C(=O)O (centres undefined) (H-WGLL-OH; configuration not given here)  0.06
98. O=C(c1ccccn1)n1c(=O)[nH]cc(F)c1=O  -0.06
99. Nc1nc(N)nc(O)n1  -0.19
100. O=[N+]([O-])c1nccn1COCC=CCO  -0.28
101. COCc1c(O)c(=O)cc(C)n1C  -0.42
102. CCc1c(O)c(=O)ccn1CCCO  -0.44
103. CC(C)C(NC(=O)C(Cc1ccccc1)NC(=O)CNC(=O)CNC(=O)C(N)Cc1c[nH]c2ccccc12)C(=O)O (centres undefined) (H-WGGFV-OH; configuration not given here)  -0.44
104. NC(Cc1c[nH]c2ccccc12)C(=O)NC(Cc1ccccc1)C(=O)O (centres undefined)  -0.47
105. Cc1cnc(C(=O)OCCCn2ccc(=O)c(O)c2C)cn1  -0.49
106. Cn1cnc([N+](=O)[O-])c1S(N)(=O)=O  -0.74
107. CCNC(=O)Cn1cccc(O)c1=O  -0.74
108. CC(C)C(NC(=O)C(N)Cc1ccccc1)C(=O)NC(Cc1ccccc1)C(=O)O (stereo not drawn) (H-Phe-Val-Phe-OH; configuration not given here)  -0.76
109. NC(Cc1ccccc1)C(=O)NC(Cc1c[nH]c2ccccc12)C(=O)O (centres undefined)  -0.79
110. CCC(C)C(N)C(=O)NC(C(=O)NC(C(=O)NC(C(=O)NC(C(=O)O)C(C)CC)C(C)C)C(C)C)C(C)C (centres undefined) (H-IVVVI-OH; configuration not given here)  -0.89
111. O=S1CCCC1  -0.96
112. CC(C)C(NC(=O)C(Cc1ccccc1)NC(=O)CNC(=O)CN)C(=O)NC(Cc1ccccc1)C(=O)O (centres undefined) (H-GGFVF-OH; configuration not given here)  -1.4
113. CC(C)CC(NC(=O)C(N)Cc1ccc(O)cc1)C(=O)NC(C(=O)O)C(C)C (stereo not drawn) (H-Tyr-Leu-Val-OH; configuration not given here)  -1.45
114. CCC(C)C(NC(=O)C(CC(C)C)NC(=O)C(N)C(C)O)C(=O)O (stereo not drawn) (H-Thr-Leu-Ile-OH; configuration not given here)  -1.66
115. CC(C)C(NC(=O)C(N)Cc1ccccc1)C(=O)O (stereo not drawn) (H-Phe-Val-OH; configuration not given here)  -1.68
116. CCC(C)C(N)C(=O)NC(C)C(=O)NCC(=O)NC(Cc1ccccc1)C(=O)O (centres undefined) (H-IAGF-OH; configuration not given here)  -1.78
117. CSCCC(N)C(=O)NC(CC(C)C)C(=O)O (stereo not drawn) (H-Met-Leu-OH; configuration not given here)  -1.84
118. CCC(C)C(NC(=O)C(NC(=O)C(N)CC(C)C)C(C)O)C(=O)O (stereo not drawn) (H-Leu-Thr-Ile-OH; configuration not given here)  -2.3
119. CC(C)CC(NC(=O)C(CC(C)C)NC(=O)C(C)NC(=O)C(C)NC(=O)CN)C(=O)O (centres undefined) (H-GAALL-OH; configuration not given here)  -2.55

— the OPERA property sets (Mansouri et al. 2018)
